Experimental data: the NIST ThermoML archive (doi:10.1021/je060271a)
Several values for one entry are separate records, joined by “and”; a condition that tells them apart may be missing. Equal values may be shown once. Numbers after ± are expanded uncertainties.

Conditions: Liquid, Vibrating tube method

CCCCC(=O)OCC(COC(=O)CCCC)(COC(=O)CCCC)COC(=O)CCCC [pentaerythritol tetrapentanoate]
Conditions	mass density
283.15 K, 33510 kPa	1045.5 ± 1.3 kg/m3
283.15 K, 33550 kPa	1045.6 ± 1.3 kg/m3
283.15 K, 33599 kPa	1045.6 ± 1.3 kg/m3
283.15 K, 33639 kPa	1045.6 ± 1.3 kg/m3
283.15 K, 33681 kPa	1045.6 ± 1.3 kg/m3
283.15 K, 33731 kPa	1045.6 ± 1.3 kg/m3
283.15 K, 33772 kPa	1045.7 ± 1.3 kg/m3
283.15 K, 33815 kPa	1045.7 ± 1.3 kg/m3
283.15 K, 33865 kPa	1045.8 ± 1.3 kg/m3
283.15 K, 33908 kPa	1045.8 ± 1.3 kg/m3
283.15 K, 33951 kPa	1045.8 ± 1.3 kg/m3
283.15 K, 34004 kPa	1045.7 ± 1.3 kg/m3
283.15 K, 34048 kPa	1045.8 ± 1.3 kg/m3
283.15 K, 34093 kPa	1045.7 ± 1.3 kg/m3
283.15 K, 34144 kPa	1045.8 ± 1.3 kg/m3
283.15 K, 34173 kPa	1046 ± 1.3 kg/m3
283.15 K, 34198 kPa	1045.9 ± 1.3 kg/m3
283.15 K, 34220 kPa	1046 ± 1.3 kg/m3
283.15 K, 34242 kPa	1045.8 ± 1.3 kg/m3
283.15 K, 34265 kPa	1045.9 ± 1.3 kg/m3
283.15 K, 34290 kPa	1045.9 ± 1.3 kg/m3
283.15 K, 34312 kPa	1046 ± 1.3 kg/m3
283.15 K, 34335 kPa	1046 ± 1.3 kg/m3
283.15 K, 34364 kPa	1045.9 ± 1.3 kg/m3
283.15 K, 34387 kPa	1045.9 ± 1.3 kg/m3
283.15 K, 34410 kPa	1046 ± 1.3 kg/m3
283.15 K, 34438 kPa	1046 ± 1.3 kg/m3
283.15 K, 34461 kPa	1046 ± 1.3 kg/m3
283.15 K, 34485 kPa	1046 ± 1.3 kg/m3
283.15 K, 34516 kPa	1046.1 ± 1.3 kg/m3
283.15 K, 34542 kPa	1046 ± 1.3 kg/m3
283.15 K, 34572 kPa	1046.1 ± 1.3 kg/m3
283.15 K, 34604 kPa	1046 ± 1.3 kg/m3
283.15 K, 34620 kPa	1046.1 ± 1.3 kg/m3
283.15 K, 34636 kPa	1046 ± 1.3 kg/m3
283.15 K, 34638 kPa	1046.3 ± 1.3 kg/m3
283.15 K, 34639 kPa	1046.1 ± 1.3 kg/m3
283.16 K, 25316 kPa	1041.3 ± 1.3 kg/m3
303.15 K, 106.42 kPa	1010.9 ± 1.2 kg/m3
303.15 K, 106.59 kPa	1010.8 ± 1.2 kg/m3 and 1010.9 ± 1.2 kg/m3
303.15 K, 106.6 kPa	1010.9 ± 1.2 kg/m3 and 1010.8 ± 1.2 kg/m3
303.15 K, 106.76 kPa	1010.9 ± 1.2 kg/m3
303.15 K, 106.77 kPa	1010.9 ± 1.2 kg/m3
303.15 K, 106.94 kPa	1010.9 ± 1.2 kg/m3 and 1010.8 ± 1.2 kg/m3
303.15 K, 107.11 kPa	1010.9 ± 1.2 kg/m3
303.15 K, 107.29 kPa	1010.9 ± 1.2 kg/m3
303.15 K, 108.17 kPa	1010.9 ± 1.2 kg/m3
303.15 K, 109.2 kPa	1010.9 ± 1.2 kg/m3
303.15 K, 110.59 kPa	1010.9 ± 1.2 kg/m3
303.15 K, 112.86 kPa	1010.8 ± 1.2 kg/m3
303.15 K, 117.2 kPa	1011 ± 1.2 kg/m3
303.15 K, 123.99 kPa	1010.9 ± 1.2 kg/m3
303.15 K, 133.19 kPa	1010.9 ± 1.2 kg/m3
303.15 K, 144.48 kPa	1010.9 ± 1.2 kg/m3
303.15 K, 156.14 kPa	1010.9 ± 1.2 kg/m3
303.15 K, 171.79 kPa	1010.8 ± 1.2 kg/m3
303.15 K, 193.18 kPa	1011 ± 1.2 kg/m3
303.15 K, 228.98 kPa	1011 ± 1.2 kg/m3
303.15 K, 269.29 kPa	1010.9 ± 1.2 kg/m3
303.15 K, 314.67 kPa	1011 ± 1.2 kg/m3
303.15 K, 395.83 kPa	1011.2 ± 1.2 kg/m3
303.15 K, 513.49 kPa	1011.2 ± 1.2 kg/m3
303.15 K, 630.95 kPa	1011.3 ± 1.2 kg/m3
303.15 K, 647.46 kPa	1011.3 ± 1.2 kg/m3
303.15 K, 648.16 kPa	1011.3 ± 1.2 kg/m3
303.15 K, 649.02 kPa	1011.3 ± 1.2 kg/m3
303.15 K, 649.71 kPa	1011.3 ± 1.2 kg/m3
303.15 K, 650.58 kPa	1011.3 ± 1.2 kg/m3
303.15 K, 651.45 kPa	1011.3 ± 1.2 kg/m3
303.15 K, 652.32 kPa	1011.2 ± 1.2 kg/m3
303.15 K, 652.67 kPa	1011.3 ± 1.2 kg/m3
303.15 K, 653.36 kPa	1011.3 ± 1.2 kg/m3
303.15 K, 654.41 kPa	1011.3 ± 1.2 kg/m3
303.15 K, 654.92 kPa	1011.2 ± 1.2 kg/m3
303.15 K, 655.97 kPa	1011.2 ± 1.2 kg/m3
303.15 K, 657.2 kPa	1011.2 ± 1.2 kg/m3
303.15 K, 657.72 kPa	1011.4 ± 1.2 kg/m3
303.15 K, 658.58 kPa	1011.3 ± 1.2 kg/m3
303.15 K, 659.27 kPa	1011.1 ± 1.2 kg/m3
303.15 K, 660.31 kPa	1011.3 ± 1.2 kg/m3
303.15 K, 661.18 kPa	1011.3 ± 1.2 kg/m3
303.15 K, 661.53 kPa	1011.3 ± 1.2 kg/m3
303.15 K, 662.58 kPa	1011.2 ± 1.2 kg/m3
303.15 K, 664.14 kPa	1011.4 ± 1.2 kg/m3
303.15 K, 666.75 kPa	1011.3 ± 1.2 kg/m3
303.15 K, 667.79 kPa	1011.3 ± 1.2 kg/m3
303.15 K, 668.65 kPa	1011.3 ± 1.2 kg/m3
303.15 K, 669.35 kPa	1011.2 ± 1.2 kg/m3
303.15 K, 670.22 kPa	1011.2 ± 1.2 kg/m3
303.15 K, 675.62 kPa	1011.2 ± 1.2 kg/m3
303.15 K, 675.96 kPa	1011.2 ± 1.2 kg/m3
303.15 K, 676.49 kPa	1011.4 ± 1.2 kg/m3
303.15 K, 677.36 kPa	1011.3 ± 1.2 kg/m3
303.15 K, 678.05 kPa	1011.3 ± 1.2 kg/m3
303.15 K, 679.27 kPa	1011.2 ± 1.2 kg/m3
303.15 K, 680.14 kPa	1011.3 ± 1.2 kg/m3
303.15 K, 681.01 kPa	1011.3 ± 1.2 kg/m3
303.15 K, 681.71 kPa	1011.3 ± 1.2 kg/m3
303.15 K, 682.41 kPa	1011.2 ± 1.2 kg/m3
303.15 K, 685.7 kPa	1011.3 ± 1.2 kg/m3
303.15 K, 686.57 kPa	1011.3 ± 1.2 kg/m3
303.15 K, 688.83 kPa	1011.2 ± 1.2 kg/m3
303.15 K, 689.69 kPa	1011.2 ± 1.2 kg/m3
303.15 K, 690.56 kPa	1011.4 ± 1.2 kg/m3
303.15 K, 691.43 kPa	1011.3 ± 1.2 kg/m3
303.15 K, 692.3 kPa	1011.4 ± 1.2 kg/m3
303.15 K, 693.35 kPa	1011.3 ± 1.2 kg/m3
303.15 K, 694.56 kPa	1011.3 ± 1.2 kg/m3
303.15 K, 695.08 kPa	1011.3 ± 1.2 kg/m3
303.15 K, 696.12 kPa	1011.3 ± 1.2 kg/m3
303.15 K, 697.16 kPa	1011.3 ± 1.2 kg/m3
303.15 K, 698.02 kPa	1011.3 ± 1.2 kg/m3
303.15 K, 698.55 kPa	1011.3 ± 1.2 kg/m3
303.15 K, 699.59 kPa	1011.3 ± 1.2 kg/m3
303.15 K, 703.59 kPa	1011.2 ± 1.2 kg/m3
303.15 K, 704.11 kPa	1011.3 ± 1.2 kg/m3
303.15 K, 705.15 kPa	1011.3 ± 1.2 kg/m3
303.15 K, 706.21 kPa	1011.3 ± 1.2 kg/m3
303.15 K, 707.07 kPa	1011.3 ± 1.2 kg/m3
303.15 K, 708.28 kPa	1011.3 ± 1.2 kg/m3
303.15 K, 709.15 kPa	1011.2 ± 1.2 kg/m3
303.15 K, 710.02 kPa	1011.3 ± 1.2 kg/m3
303.15 K, 711.24 kPa	1011.3 ± 1.2 kg/m3
303.15 K, 711.93 kPa	1011.4 ± 1.2 kg/m3
303.15 K, 712.98 kPa	1011.3 ± 1.2 kg/m3
303.15 K, 713.84 kPa	1011.2 ± 1.2 kg/m3
303.15 K, 714.72 kPa	1011.3 ± 1.2 kg/m3
303.15 K, 715.75 kPa	1011.3 ± 1.2 kg/m3
303.15 K, 716.62 kPa	1011.3 ± 1.2 kg/m3
303.15 K, 717.84 kPa	1011.3 ± 1.2 kg/m3
303.15 K, 719.05 kPa	1011.4 ± 1.2 kg/m3
303.15 K, 720.1 kPa	1011.3 ± 1.2 kg/m3
303.15 K, 720.79 kPa	1011.3 ± 1.2 kg/m3
303.15 K, 721.67 kPa	1011.2 ± 1.2 kg/m3
303.15 K, 722.71 kPa	1011.3 ± 1.2 kg/m3
303.15 K, 723.76 kPa	1011.3 ± 1.2 kg/m3
303.15 K, 724.45 kPa	1011.3 ± 1.2 kg/m3
303.15 K, 725.83 kPa	1011.4 ± 1.2 kg/m3
303.15 K, 726.87 kPa	1011.3 ± 1.2 kg/m3
303.15 K, 727.92 kPa	1011.4 ± 1.2 kg/m3
303.15 K, 728.79 kPa	1011.3 ± 1.2 kg/m3
303.15 K, 730.17 kPa	1011.2 ± 1.2 kg/m3
303.15 K, 730.7 kPa	1011.4 ± 1.2 kg/m3
303.15 K, 731.58 kPa	1011.3 ± 1.2 kg/m3
303.15 K, 733.65 kPa	1011.3 ± 1.2 kg/m3
303.15 K, 734.7 kPa	1011.3 ± 1.2 kg/m3
303.15 K, 735.91 kPa	1011.2 ± 1.2 kg/m3
303.15 K, 736.78 kPa	1011.2 ± 1.2 kg/m3
303.15 K, 737.82 kPa	1011.3 ± 1.2 kg/m3
303.15 K, 739.04 kPa	1011.4 ± 1.2 kg/m3
303.15 K, 740.26 kPa	1011.3 ± 1.2 kg/m3
303.15 K, 741.3 kPa	1011.3 ± 1.2 kg/m3
303.15 K, 742.16 kPa	1011.4 ± 1.2 kg/m3
303.15 K, 743.2 kPa	1011.3 ± 1.2 kg/m3
303.15 K, 744.08 kPa	1011.2 ± 1.2 kg/m3
303.15 K, 745.47 kPa	1011.3 ± 1.2 kg/m3
303.15 K, 746.33 kPa	1011.3 ± 1.2 kg/m3
303.15 K, 747.56 kPa	1011.3 ± 1.2 kg/m3
303.15 K, 748.76 kPa	1011.4 ± 1.2 kg/m3
303.15 K, 749.63 kPa	1011.3 ± 1.2 kg/m3
303.15 K, 750.5 kPa	1011.4 ± 1.2 kg/m3
